According to patent US6514989B1, “Aromatic and heteroaromatic substituted 1,2,4-triazolo pyridine derivatives” (Hoffmann-La Roche Inc., priority 2001, dated 2003):

What was measured:
[1] = biological target: T1, human adenosine A2a receptor (Homo sapiens, UniProt P29274); assay: Human adenosine A2a receptor radioligand binding assay ([125I]-AB-MECA, CHO cell membranes); settings: for Ki: recombinant human A2a receptor expressed in CHO cells, Ki from IC50 by Cheng-Prussoff equation, read-out: hA2a Ki; for Selectivity A1/A2a: ratio obtained by dividing KiHA1 by KiHA2A
T1 construct: expressed in transfected cells; host or cells: CHO cells, semliki forest virus expression system; membrane preparation
Description: Human Adenosine A2a Receptor
The gene encoding human adenosine A2a receptor was recombinantly introduced and expressed in chinese hamster ovary (CHO) cells using the semliki forest virus expression system. Cells were harvested, washed twice by centrifugation, homogenized and again washed by centrifugation. The final washed membrane pellet was suspended in a Tris (50 mM) buffer containing 120 mM NaCl, 5 mM KCl, 2 mM CaCl2 and 10 mM MgCl2 (pH 7.4) (buffer A). The [^125I]-AB-MECA ([N(6)-(4-amino-3-iodobenzyl)-5′-N-methylcarbamoyl-adenosine]; 0.05 nM) binding assay was carried out in 96-well a plates in the presence of 20 μg of membrane protein and 0.1 U adenosine deaminase in a final volume of […] of buffer A. Non-specific binding was defined using xanthine amine congener (XAC; 2 μM). Compounds were tested at 10 concentrations from 10 μM-0.3 nM. All assays were conducted in duplicate and repeated at least two times. Assay plates were incubated for 1 hour at room temperature before filtration through Whatman Unifilter GF/C 96-well filter plates (preincubated with 0.3% polyethyleneimine). Filters were washed 3 times with 0.3 ml of cold (4° C.) Tris (50 mM)—NaC […]
[…] 1 (120 mM) buffer (pH 7.4). Microscint 40 scintillation fluid (50 μl) was added to each well and the wells sealed. After gentle shaking for 20 min, plates were counted on a Packard Topcount scintillation counter. IC50 values were calculated using a non-linear curve fitting program and Ki values calculated using the Cheng-Prussoff equation.
(§1) In accordance with the invention, it has been shown that compounds of formula I have a high affinity toward the A2A receptor. In Table I below specific values of prepared compounds are described, Values of KiHA2A and KiHA1 are shown in Table I for compounds of formula 1. A low Ki value is indicative of a particular compound's high affinity toward a particular receptor and conversely a higher Ki value is indicative of a lower affinity for that compound toward a particular receptor. […] Generally speaking, compounds that have a higher HA1/HA2A ratio are able to give a substantially complete blockade of the HA2A receptor without substantially affecting the A1 receptor.

[2] = biological target: T2, human adenosine A1 receptor (Homo sapiens, UniProt P30542); assay: Human adenosine A1 receptor radioligand binding assay ([3H]-DPCPX, SPA, CHO cell membranes); settings: recombinant human A1 receptor expressed in CHO cells; [3H]-DPCPX 0.6 nM; Ki from IC50 by Cheng-Prussoff equation; read-out: hA1 Ki
T2 construct: expressed in transfected cells; host or cells: CHO cells, semliki forest virus expression system; membrane preparation
T2 sequence (P30542 1-326): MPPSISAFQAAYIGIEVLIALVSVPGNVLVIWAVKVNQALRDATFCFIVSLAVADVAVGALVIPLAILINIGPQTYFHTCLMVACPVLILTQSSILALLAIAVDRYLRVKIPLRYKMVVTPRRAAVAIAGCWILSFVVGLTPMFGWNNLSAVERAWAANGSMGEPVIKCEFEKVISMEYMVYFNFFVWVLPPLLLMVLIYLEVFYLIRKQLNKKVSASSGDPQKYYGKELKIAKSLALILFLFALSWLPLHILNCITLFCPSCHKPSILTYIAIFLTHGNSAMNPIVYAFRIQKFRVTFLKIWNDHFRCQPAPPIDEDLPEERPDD
Description: Human Adenosine A^1 Receptor
The gene encoding human adenosinie A1 receptor was recombinantly introduced and expressed in chinese hamster ovary (CHO) cells using the semliki forest virus expression system. Cells were harvested, washed twice by centrifugation, homogenized and again washed by centrifugation. The final washed membrane pellet was suspended in a Tris (50 mM) buffer containing 120 mM NaCl, 5 mM KCl, 2 mM CaCl2 and 10 mM MgCl2 (pH 7.4) (buffer A). The [^3H]-DPCPX (([propyl-3H]8-cyclopentyl-1,3-dipropyxanthine); 0.6 nM) binding assay was carried out in 96-well plates in the presence of 2.5 μg of membrane protein, 0.5 mg of Ysi-poly-1-lysine SPA beads and 0.1 U adenosine deaminase in a final volume of 200 μl of buffer A. Non-specific binding was defined using xanthine amine congener (XAC; 2 μM). Compounds were tested at 10 concentrations from 10 μM-0.3 nM. All assays were conducted in duplicate and repeated at least two times. Assay plates were incubated for 1 hour at room temperature before centrifugation and then bound ligand determined using a Packard Topcount scintillation counter. IC50 values were calculated using a non-linear curve fitting program and Ki values calculated using the Cheng-Prussoff equation.
as §1

T1 sequence (P29274 whole entry): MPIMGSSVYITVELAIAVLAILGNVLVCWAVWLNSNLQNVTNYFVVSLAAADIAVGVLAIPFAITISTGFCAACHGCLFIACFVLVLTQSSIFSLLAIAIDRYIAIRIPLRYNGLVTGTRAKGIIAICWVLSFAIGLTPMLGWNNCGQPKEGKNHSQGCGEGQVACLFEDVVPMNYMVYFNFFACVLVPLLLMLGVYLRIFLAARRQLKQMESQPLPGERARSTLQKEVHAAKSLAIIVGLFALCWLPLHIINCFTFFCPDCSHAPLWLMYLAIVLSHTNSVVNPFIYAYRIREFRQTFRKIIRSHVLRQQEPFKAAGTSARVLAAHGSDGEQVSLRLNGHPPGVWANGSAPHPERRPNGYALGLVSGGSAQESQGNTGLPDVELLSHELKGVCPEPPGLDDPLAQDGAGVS

Ki [1] [nM] | Selectivity A1/A2a [1] | Ki [2] [nM] | Compound
938 | – | – | COc1ccc(-c2ccccc2C)n2nc(NC(=O)c3ccc(C)s3)nc12 [Example 37, 5-Methyl-thiophene-2-carboxylic acid (8-methoxy-5-o-tolyl-[1,2,4]triazolo[1,5-a]pyridin-2-yl)-amide]
451 | – | – | COc1ccc(-c2ccc(C)cc2)n2nc(NC(=O)c3ccc(C)s3)nc12 [Example 39, 5-Methyl-thiophene-2-carboxylic acid (8-methoxy-5-p-tolyl-[1,2,4]triazolo[1,5-a]pyridin-2-yl)-amide]
191 | 12.3 | 2340 | COc1ccc(-c2ccsc2)n2nc(NC(=O)c3ccc(F)cc3)nc12 [Example 33, 4-Fluoro-N-(8-methoxy-5-thiophen-3-yl-[1,2,4]triazolo[1,5-a]pyridin-2-yl)-benzamide]
72.9 | 18.6 | 1360 | CCOc1cccc(-c2ccc(OC)c3nc(NC(=O)c4ccc(C)s4)nn23)c1 [Example 30, 5-Methyl-thiophene-2-carboxylic acid [5-(3-ethoxy-phenyl)-8-methoxy-[1,2,4]triazolo[1,5-a]pyridin-2-yl]-amide]
128 | 10.6 | 1360 | COc1ccc(-c2cccc(F)c2)n2nc(NC(=O)c3ccc(C)s3)nc12 [Example 35, 5-Methyl-thiophene-2-carboxylic acid [5-(3-fluoro-phenyl)-8-methoxy-[1,2,4]triazolo[1,5-a]pyridin-2-yl]-amide]
480 | – | – | CCOC(=O)c1cccc(-c2ccc(OC)c3nc(NC(=O)c4ccc(F)cc4)nn23)c1 [Example 51, 3-[2-(4-Fluoro-benzoylamino)-8-methoxy-[1,2,4]triazolo[1,5-a]pyridin-5-yl]-benzoic acid ethyl ester]
624 | – | – | COc1ccc(-c2ccc(Cl)cc2)n2nc(NC(=O)c3ccc(F)cc3)nc12 [Example 48, N-[5-(4-Chloro-phenyl)-8-methoxy-[1,2,4]triazolo[1,5-a]pyridin-2-yl]-4-fluoro-benzamide]
246 | – | – | 5-Methyl-thiophene-2-carboxylic acid[8-methoxy-5-(4-vinyl-phenyl)-[1,2,4]triazolo[1,5-a]pyridin-2-yl]-amide [Example 44]
277 | – | – | COc1ccc(-c2cccc(C)c2)n2nc(NC(=O)c3ccc(C)s3)nc12 [Example 38, 5-Methyl-thiophene-2-carboxylic acid (8-methoxy-5-m-tolyl [1,2,4]triazolo[1,5-a]pyridin-2-yl)-amide]
173 | 11.5 | 2000 | CCc1ccc(C(=O)Nc2nc3c(OC)ccc(-c4ccccc4)n3n2)cc1 [Example 10, 4-Ethyl-N-(8-methoxy-5-phenyl-[1,2,4]triazolo[1,5-a]pyridin-2-yl)-benzamide]
63.6 | 37.6 | 2390 | COc1ccc(-c2cccs2)n2nc(NC(=O)c3ccc(Br)cc3)nc12 [Example 2, 4-Bromo-N-(8-methoxy-5-thiophen-2-yl-[1,2,4]triazolo[1,5-a]pyridin-2-yl)-benzamide]
266 | – | – | COc1ccc(-c2ccccc2)n2nc(NC(=O)c3ccccc3Br)nc12 [Example 22, 2-Bromo-N-(8-methoxy-5-phenyl-[1,2,4]triazolo[1,5-a]pyridin-2-yl)-benzamide]
208 | 12.0 | 2490 | COc1ccc(-c2cccs2)n2nc(NC(=O)c3ccccc3Br)nc12 [Example 17, 2-Bromo-N-(8-methoxy-5-thiophen-2-yl-[1,2,4]triazolo[1,5-a]pyridin-2-yl)-benzamide]
114 | 25.6 | 2910 | COc1ccc(-c2cccs2)n2nc(NC(=O)c3ccc(Cl)cc3)nc12 [Example 15, 4-Chloro-N-(8-methoxy-5-thiophen-2-yl-[1,2,4]triazolo[1,5-a]pyridin-2-yl)-benzamide]
269 | – | – | COc1ccc(-c2cccc(Cl)c2)n2nc(NC(=O)c3ccc(F)cc3)nc12 [Example 47, N-[5-(3-Chloro-phenyl)-8-methoxy-[1,2,4]triazolo[1,5-a]pyridin-2-yl]-4-fluoro-benzamide]
527 | – | – | COc1ccc(-c2ccccc2Cl)n2nc(NC(=O)c3ccc(C)s3)nc12 [Example 36, 5-Methyl-thiophene-2-carboxylic acid [5-(2-chloro-phenyl)-8-methoxy-[1,2,4]triazolo[1,5-a]pyridin-2-yl]-amide]
287 | – | – | COc1ccc(-c2ccc(SC)cc2)n2nc(NC(=O)c3ccc(C)s3)nc12 [Example 42, 5-Methyl-thiophene-2-carboxylic acid [8-methoxy-5-(4-methylsulfanyl-phenyl)-[1,2,4]triazolo[1,5-a]pyridin-2-yl]-amide]
346 | – | – | COc1ccc(-c2ccc(OC)c3nc(NC(=O)c4ccc(F)cc4)nn23)cc1 [Example 49, 4-Fluoro-N-[8-methoxy-5-(4-methoxy-phenyl)-[1,2,4]triazolo[1,5-a]pyridin-2-yl]-benzamide]
855 | – | – | COc1ccc(-c2ccc(SC)cc2)n2nc(NC(=O)c3ccc(F)cc3)nc12 [Example 50, 4-Fluoro-N-[8-methoxy-5-(4-methylsulfanyl-phenyl)-[1,2,4]triazolo[1,5-a]pyridin-2-yl]-benzamide]
332 | – | – | CCOC(=O)c1cccc(-c2ccc(OC)c3nc(NC(=O)c4ccc(C)s4)nn23)c1 [Example 46, 3-{8-Methoxy-2-[(5-methyl-thiophene-2-carbonyl)-amino]-[1,2,4]triazolo[1,5-a]pyridin-5-yl}-benzoic acid ethyl ester]
547 | – | – | COc1ccc(-c2cccc(C(F)(F)F)c2)n2nc(NC(=O)c3ccc(C)s3)nc12 [Example 40, 5-Methyl-thiophene-2-carboxylic acid [8-methoxy-5-(3-trifluoromethyl-phenyl)-[1,2,4]triazolo[1,5-a]pyridin-2-yl]-amide]
254 | – | – | COc1ccc(-c2cccc(NC(C)=O)c2)n2nc(NC(=O)c3ccc(C)s3)nc12 [Example 41, 5-Methyl-thiophene-2-carboxylic acid [5-(3-acetylamino-phenyl)-8-methoxy-[1,2,4]triazolo[1,5-a]pyridin-2-yl]-amide]
384 | – | – | COc1ccc(-c2ccccc2)n2nc(NC(=O)c3ccccc3F)nc12 [Example 21, 2-Fluoro-N-(8-methoxy-5-phenyl-[1,2,4]triazolo[1,5-a]pyridin-2-yl)-benzamide]
618 | – | – | COc1ccc(-c2cccc(C(C)=O)c2)n2nc(NC(=O)c3ccc(C)s3)nc12 [Example 43, 5-Methyl-thiophene-2-carboxylic acid [5-(3-acetyl-phenyl)-8-methoxy-[1,2,4]triazolo[1,5-a]pyridin-2-yl]-amide]
852 | – | – | COc1ccc(-c2ccc3[nH]ccc3c2)n2nc(NC(=O)c3ccc(C)s3)nc12 [Example 45, 5-Methyl-thiophene-2-carboxylic acid [5-(1H-indol-5-yl)-8-methoxy-[1,2,4]triazolo[1,5-a]pyridin-2-yl]-amide]
